Results taken from patent US20160237059A1, “HETEROCYCLIC SUBSTITUTED TRIFLUOROMETHYL PYRIMIDINONES AND THEIR USE” (BAYER PHARMA AKTIENGESELLSCHAFT, priority 2013, published 2016).

What was measured:
human CCR2 = biological target: T1, human CCR2 (Homo sapiens, UniProt P41597); assay: Functional Ca2+ release test (B-1); assay type: cell-based; conditions: Chem-1 cell line transfected with human CCR2; 50% inhibition of the MCP-1 effect, MCP-1 at EC50 (about 5 nM); in some cases means of several determinations
T1 construct: host or cells: Chem-1 cell line
T1 sequence (P41597 1-360 isoform P41597-2): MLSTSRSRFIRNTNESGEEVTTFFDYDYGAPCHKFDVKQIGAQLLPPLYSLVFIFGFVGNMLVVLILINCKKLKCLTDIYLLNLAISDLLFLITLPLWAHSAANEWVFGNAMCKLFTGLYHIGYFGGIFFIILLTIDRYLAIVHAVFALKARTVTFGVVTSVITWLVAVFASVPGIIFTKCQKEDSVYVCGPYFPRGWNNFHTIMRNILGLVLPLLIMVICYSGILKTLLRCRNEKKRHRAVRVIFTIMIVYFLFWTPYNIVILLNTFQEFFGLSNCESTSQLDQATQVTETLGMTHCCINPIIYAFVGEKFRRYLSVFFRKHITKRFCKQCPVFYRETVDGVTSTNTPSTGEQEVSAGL
Outline: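 Chem-1 cells expressing human CCR2, loaded with Fluo-4 for 60 min at 37° C, were preincubated 10 min with compound (10-point, 1:3.16 dilutions), then stimulated with MCP-1 at its predetermined EC50 (about 5 nM). Ca2+ release was monitored for 120 s. IC50 came from a 4-parameter Hill fit.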

murine CCR2 = biological target: T2, murine CCR2 (Mus musculus, UniProt P51683); assay: Functional β-arrestin recruiting test with murine MCP-1 (B-2b); assay type: cell-based; conditions: U2OS β-arrestin cell line transfected with murine CCR2; agonist murine MCP-1; in some cases means of several determinations
T2 construct: host or cells: U2OS β-arrestin cell line
T2 sequence (P51683 whole entry): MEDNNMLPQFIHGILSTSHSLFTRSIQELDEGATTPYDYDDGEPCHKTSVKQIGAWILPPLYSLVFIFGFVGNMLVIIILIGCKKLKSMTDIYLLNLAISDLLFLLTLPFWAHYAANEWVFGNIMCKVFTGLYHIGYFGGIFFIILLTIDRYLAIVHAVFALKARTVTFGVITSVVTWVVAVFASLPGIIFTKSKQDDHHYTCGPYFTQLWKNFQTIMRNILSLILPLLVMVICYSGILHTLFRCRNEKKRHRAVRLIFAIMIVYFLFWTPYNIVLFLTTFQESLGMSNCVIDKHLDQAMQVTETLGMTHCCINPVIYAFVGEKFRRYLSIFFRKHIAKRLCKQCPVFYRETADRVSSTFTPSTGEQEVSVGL
Outline: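 In a PathHunter β-galactosidase complementation assay, U2OS cells expressing murine CCR2 were preincubated 10 min with compound (10-point, 1:3.16 dilutions), then challenged with murine MCP-1 at its predetermined EC50 for 90 min at 37 °C. Luminescence was read after 60 min, and IC50 was fitted with a 4-parameter Hill function.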

Compound	IC50 (human CCR2) [nM]	IC50 (murine CCR2) [nM]
O=c1[nH]c(-c2ncccc2-c2ccccc2)nc(C(F)(F)F)c1Oc1ccc(Cl)c(C(F)(F)F)c1 [Example 188, 5-[4-chloro-3-(trifluoromethyl)phenoxy]-2-(3-phenylpyridin-2-yl)-6-(trifluoromethyl)pyrimidin-4(3H)-one]	1.5	828
COc1csnc1-c1nc(C(F)(F)F)c(Oc2ccc(Cl)c(C(F)(F)F)c2)c(=O)[nH]1 [Example 238]	0.9	39
Cc1cnc(-c2nc(C(F)(F)F)c(Oc3ccc(Cl)c(C(F)(F)F)c3)c(=O)[nH]2)[nH]1 [Example 242]	1.8	153
Cc1cc(-c2nc(C(F)(F)F)c(Oc3ccc(Cl)c(C(F)(F)F)c3)c(=O)[nH]2)nn1C [Example 170, 5-[4-chloro-3-(trifluoromethyl)phenoxy]-2-(1,5-dimethyl-1H-pyrazol-3-yl)-6-(trifluoromethyl)pyrimidin-4(3H)-one]	0.7	84
O=c1[nH]c(-c2cccnn2)nc(C(F)(F)F)c1Oc1ccc(Cl)c(C(F)(F)F)c1 [Example 118, 5-[4-chloro-3-(trifluoromethyl)phenoxy]-2-(pyridazin-3-yl)-6-(trifluoromethyl)pyrimidin-4(3H)-one]	0.4	73
Cc1ccc(-c2nc(C(F)(F)F)c(Oc3ccc(Cl)c(C(F)(F)F)c3)c(=O)[nH]2)nc1 [Example 193, 5-[4-chloro-3-(trifluoromethyl)phenoxy]-2-(5-methylpyridin-2-yl)-6-(trifluoromethyl)pyrimidin-4(3H)-one]	0.7	79
Cn1nc(-c2nc(C(F)(F)F)c(Oc3ccc(Cl)c(Cl)c3)c(=O)[nH]2)c2c(Cl)cccc21 [Example 141, 2-(4-chloro-1-methyl-1H-indazol-3-yl)-5-(3,4-dichlorophenoxy)-6-(trifluoromethyl)pyrimidin-4(3H)-one]	5.1	274
O=c1[nH]c(-n2cnc(Cl)n2)nc(C(F)(F)F)c1Oc1ccc(Cl)c(Cl)c1 [Example 247]	123	5530
O=c1[nH]c(-n2ccc(C(F)(F)F)n2)nc(C(F)(F)F)c1Oc1ccc(Cl)c(Cl)c1 [Example 252]	113	6940
O=c1[nH]c(-c2ccnnc2)nc(C(F)(F)F)c1Oc1ccc(Cl)c(C(F)(F)F)c1 [Example 129, 5-[4-chloro-3-(trifluoromethyl)phenoxy]-2-(pyridazin-4-yl)-6-(trifluoromethyl)pyrimidin-4(3H)-one]	222	2710
Nc1cnc2cnn(-c3nc(C(F)(F)F)c(Oc4ccc(Cl)c(Cl)c4)c(=O)[nH]3)c2c1 [Example 257]	2.8	276
CCCc1cc(-c2nc(C(F)(F)F)c(Oc3ccc(Cl)c(C(F)(F)F)c3)c(=O)[nH]2)no1 [Example 216]	4.6	1320
O=c1[nH]c(-c2cc(C3CC3)on2)nc(C(F)(F)F)c1Oc1ccc(Cl)c(C(F)(F)F)c1 [Example 220]	3.5	775
COc1cccc(-c2nc(C(F)(F)F)c(Oc3ccc(Cl)c(C(F)(F)F)c3)c(=O)[nH]2)n1 [Example 149, 5-[4-chloro-3-(trifluoromethyl)phenoxy]-2-(6-methoxypyridin-2-yl)-6-(trifluoromethyl)pyrimidin-4(3H)-one]	0.7	526
CC(C)(C)Oc1cccc(-c2nc(C(F)(F)F)c(Oc3ccc(Cl)c(C(F)(F)F)c3)c(=O)[nH]2)n1 [Example 151, 2-(6-tert-butoxypyridin-2-yl)-5-[4-chloro-3-(trifluoromethyl)phenoxy]-6-(trifluoromethyl)pyrimidin-4(3H)-one]	96	3680
COc1c[nH]nc1-c1nc(C(F)(F)F)c(Oc2ccc(Cl)c(C(F)(F)F)c2)c(=O)[nH]1 [Example 214, 5-[4-chloro-3-(trifluoromethyl)phenoxy)-2-(4-methoxy-1H-pyrazol-3-yl)-6-(trifluoromethyl)pyrimidin-4(3H)-one]	0.6	8.5
O=c1[nH]c(-c2cccnc2)nc(C(F)(F)F)c1Oc1ccc(Cl)c(C(F)(F)F)c1 [Example 164, 5-[4-chloro-3-(trifluoromethyl)phenoxy]-2-(pyridin-3-yl)-6-(trifluoromethyl)pyrimidin-4(3H)-one]	16	798
Cc1ccc(Oc2c(C(F)(F)F)nc(-c3cc[nH]n3)[nH]c2=O)cc1Cl [Example 224]	0.3	47
O=c1[nH]c(-c2nsc(Cl)c2Cl)nc(C(F)(F)F)c1Oc1ccc(Cl)c(C(F)(F)F)c1 [Example 228]	5.3	227
O=c1[nH]c(-c2n[nH]c3ccccc23)nc(C(F)(F)F)c1Oc1ccc(Cl)c(C(F)(F)F)c1 [Example 140, 5-[4-chloro-3-(trifluoromethyl)phenoxy]-2-(1H-indazol-3-yl)-6-(trifluoromethyl)pyrimidin-4(3H)-one]	0.8	75

Next, values leading:

IC50 (human CCR2) [nM]	IC50 (murine CCR2) [nM]	Compound
3.2	360	Nc1ccnc(-c2nc(C(F)(F)F)c(Oc3ccc(Cl)c(Cl)c3)c(=O)[nH]2)c1 [Example 128, 2-(4-aminopyridin-2-yl)-5-(3,4-dichlorophenoxy)-6-(trifluoromethyl)pyrimidin-4(3H)-one]
2.9	320	O=c1[nH]c(-c2ccncc2Cl)nc(C(F)(F)F)c1Oc1ccc(Cl)c(Cl)c1 [Example 124, 2-(3-chloropyridin-4-yl)-5-(3,4-dichlorophenoxy)-6-(trifluoromethyl)pyrimidin-4(3H)-one]
2.3	432	O=c1[nH]c(-c2cccc[n+]2[O-])nc(C(F)(F)F)c1Oc1ccc(Cl)c(Cl)c1 [Example 161, 5-(3,4-dichlorophenoxy)-2-(1-oxidopyridin-2-yl)-6-(trifluoromethyl)pyrimidin-4(3H)-one]
2.1	372	O=c1[nH]c(-c2cnccn2)nc(C(F)(F)F)c1Oc1ccc(Cl)c(Cl)c1 [Example 127, 5-(3,4-dichlorophenoxy)-2-(pyrazin-2-yl)-6-(trifluoromethyl)pyrimidin-4(3H)-one]
1.2	359	CN(C)c1ccc(-c2nc(C(F)(F)F)c(Oc3ccc(Cl)c(Cl)c3)c(=O)[nH]2)nn1 [Example 200]
1.9	1070	CCc1cccc(-c2nc(C(F)(F)F)c(Oc3ccc(Cl)c(Cl)c3)c(=O)[nH]2)n1 [Example 162, 2-(6-ethylpyridin-2-yl)-5-(3,4-dichlorophenoxy)-6-(trifluoromethyl)pyrimidin-4(3H)-one]
121	373	COc1ccnc(-c2nc(C(F)(F)F)c(Oc3ccc(Cl)c(Cl)c3)c(=O)[nH]2)c1 [Example 147, 5-(3,4-dichlorophenoxy)-2-(4-methoxypyridin-2-yl)-6-(trifluoromethyl)pyrimidin-4(3H)-one]
17	759	COc1cccc(-c2nc(C(F)(F)F)c(Oc3ccc(Cl)c(Cl)c3)c(=O)[nH]2)n1 [Example 144, 5-(3,4-dichlorophenoxy)-2-(6-methoxypyridin-2-yl)-6-(trifluoromethyl)pyrimidin-4(3H)-one]
2.1	51	CN(C)c1ccc(-c2nc(C(F)(F)F)c(Oc3ccc(Cl)c(C(F)(F)F)c3)c(=O)[nH]2)nc1 [Example 134, 5-[4-chloro-3-(trifluoromethyl)phenoxy]-2-[5-(dimethylamino)pyridin-2-yl]-6-(trifluoromethyl)pyrimidin-4(3H)-one]
53	1030	CC(C)(C)Sc1cccnc1-c1nc(C(F)(F)F)c(Oc2ccc(Cl)c(Cl)c2)c(=O)[nH]1 [Example 189]
0.3	150	Cn1ccc(-c2nc(C(F)(F)F)c(Oc3ccc(Cl)c(Cl)c3)c(=O)[nH]2)n1 [Example 225]
3.9	584	CCc1cc(-c2nc(C(F)(F)F)c(Oc3ccc(Cl)c(Cl)c3)c(=O)[nH]2)no1 [Example 218]
0.8	76	Cc1cnc(-c2nc(C(F)(F)F)c(Oc3ccc(Cl)c(Cl)c3)c(=O)[nH]2)[nH]1 [Example 241]
1.3	83	Cc1cc(Oc2c(C(F)(F)F)nc(-c3ncccc3Cl)[nH]c2=O)ccc1Cl [Example 197, 5-(4-chloro-3-methylphenoxy)-2-(3-chloropyridin-2-yl)-6-(trifluoromethyl)pyrimidin-4(3H)-one]
39	1220	Cn1nc(-c2nc(C(F)(F)F)c(Oc3ccc(Cl)c(Cl)c3)c(=O)[nH]2)c2ccccc21 [Example 136, 5-(3,4-dichlorophenoxy)-2-(1-methyl-1H-indazol-3-yl)-6-(trifluoromethyl)pyrimidin-4(3H)-one]
0.6	49	COc1c[nH]nc1-c1nc(C(F)(F)F)c(Oc2ccc(Cl)c(Cl)c2)c(=O)[nH]1 [Example 213]
